Results on twelve compounds are retold here after US10202330B2, “Lysine specific demethylase-1 inhibitors and their use” (ORYZON GENOMICS S.A., priority 2010, dated 2019).

Where a name gives a salt, the structure may show the parent alone. Read-outs that look alike come from different tables or passages of the source.

The target of assay [1] is Human recombinant LSD1 protein (Homo sapiens (Human), UniProt O60341). In words: LSD1 inhibition, Amplex Red peroxide/peroxidase-coupled assay with di-methylated H3-K4 peptide. Format: biochemical.
Method: The demethylase activity was estimated, under aerobic conditions, by measuring the release of H2O2 produced during the catalytic process, using the Amplex® Red peroxide/peroxidase-coupled assay kit (Invitrogen).
Within the experiment, each concentration of inhibitor was tested in triplicate. […] The enzymatic reactions were set up in a 50 mM sodium phosphate, pH 7.4 buffer. At the end of the incubation, Amplex® Red reagent and horseradish peroxidase (HPR) solution were added to the reaction according to the recommendations provided by the supplier (Invitrogen), and left to incubate for 30 extra minutes at room temperature in the dark. A 1 μM H2O2 solution was used as a control of the kit efficiency. The conversion of the Amplex® Red reagent to resorufin due to the presence of H2O2 in the assay, was monitored by fluorescence (excitation at 540 nm, emission at 590 nm) using a microplate reader (Infinite 200, Tecan). Arbitrary units were used to measure level of H2O2 produced in the absence and/or in the presence of inhibitor.
The Ki (IC50) of each inhibitor was estimated at half of the maximum activity.
The target of assay [2] is Human recombinant monoamine oxidase MAO-A (Homo sapiens (Human), UniProt P21397). In words: Monoamine oxidase assay, kynuramine to 4-hydroxyquinoline fluorescence. The assay is classed as biochemical. The conditions noted are these: Ki (IC50) at Vmax/2; two ranges listed = near the boundary.
From the text: (§1) In order to monitor MAO enzymatic activities and/or their inhibition rate by inhibitor(s) of interest, a fluorescent-based (inhibitor)-screening assay was set up. 3-(2-Aminophenyl)-3-oxopropanamine (kynuramine dihydrobromide, Sigma Aldrich), a non fluorescent compound was chosen as a substrate. Kynuramine is a non-specific substrate for both MAOs activities. While undergoing oxidative deamination by MAO activities, kynuramine is converted into 4-hydroxyquinoline (4-HQ), a resulting fluorescent product.
(§2) The monoamine oxidase activity was estimated by measuring the conversion of kynuramine into 4-hydroxyquinoline. Assays were conducted in 96-well black plates with clear bottom (Corning) in a final volume of 100 μL. The assay buffer was 100 mM HEPES, pH 7.5. Each experiment was performed in triplicate within the same experiment.
(§3) The oxidative deamination of the substrate was stopped by adding 50 μL (v/v) of NaOH 2N. […] Arbitrary units were used to measure levels of fluorescence produced in the absence and/or in the presence of inhibitor.
(§4) The Ki (IC50) of each inhibitor was determined at Vmax/2.
The target in assay [3] is Human recombinant monoamine oxidase MAO-B (Homo sapiens (Human), UniProt P27338). The description is as above. The assay is classed as biochemical. The settings on record: Ki (IC50) at Vmax/2; two ranges listed = near the boundary.
From the text: as §1, §2, §3, §4
Assay [4] deals with human colon cancer cell line HCT116. Nature of the assay: Cancer cell line study, alamarBlue viability assay. The conditions noted are these: HCT-116, read-out: EC50 (dose required to inhibit cell growth by 50%), HCT116, 72 hours. Format: cell-based. A general note: Alamar Blue is a resazurin reagent that responds to reducing activity.
Method: The HCT116 cell line was maintained in DMEM GlutaMAX (Invitrogen) supplemented with 10% fetal calf serum.
Cells were grown in a humidified incubator at 37° C. in 5% CO2.
Cells were plated in 96-well plates at a density of 6000 cells/well in 100 μl medium 24 h before addition of drugs. […] To do so, a drugs-dilution plate at twice the screening concentrations was prepared. 72 hours later, alamarBlue (Biosource, Invitrogen) viability assay was performed following manufacturer's protocol. In brief, alamarBlue diluted in media was added to cells to have a 5% solution. Cells were incubated at 37° C., 3 hours and at room temperature, 30 min. Cells with no drug and, cells with no drug and lysed with triton X-100 were used as controls. Fluorescence was monitored at 530 nm excitation and 590 nm emission wavelengths. Results were quantified using Infinite F200 Microplate Reader (Tecan Group, Ltd.).
Where [5] appears, read: Ki (IC50) at half of the maximum activity, two ranges listed = near the boundary, read-out: LSD1 (Ki).

One may read the Ki as a dissociation constant, usually derived from enzyme kinetics or from competition with a known ligand. By EC50 is commonly meant the concentration at which the effect is half-maximal.

In the case of `c1ccc([C@H]2C[C@@H]2NCCCC2CCCCC2)cc1` (relative stereo) [Example 13, (Trans)-N-(3-cyclohexylpropyl)-2-phenylcyclopropanamine hydrochloride], the values for the Ki in assay [1] (setting [5]), in assay [2] and in assay [3] were 100 to 1000 nM, 1000 to 40000 nM and 1000 to 40000 nM, respectively.

In the case of `c1ccc([C@H]2C[C@@H]2NCCC2CCCCCC2)cc1` (relative stereo) [Example 14, (Trans)-N-(2-cycloheptylethyl)-2-phenylcyclopropanamine hydrochloride], the Ki in assay [1] (setting [5]) was in the range of 100 to 1000 nM; in assay [2], 1000 to 40000 nM; in assay [3], 1000 to 40000 nM.

For the compound `Brc1cccc(COc2ccc([C@H]3C[C@@H]3NCCC3CCCCC3)cc2)c1` (relative stereo) [Example 15, (Trans)-2-(4-(3-bromobenzyloxyl)phenyl)-N-(2-cyclohexylethyl)cyclopropanamine hydrochloride], the Ki in assay [1] was 100 to 1000 nM; in assay [2], 1000 to 40000 nM; in assay [3], 100 to 1000 nM. In addition, the EC50 in assay [4] is roughly 13300 nM.

As to `COc1ccc2c(c1)C(N[C@@H]1C[C@H]1c1ccc(OCc3ccccc3)cc1)CCC2` (relative stereo) [Example 20, N-((trans)-2-(4-(benzyloxy)phenyl)cyclopropyl)-7-methoxy-1,2,3,4-tetrahydronaphthalen-1-amine], the Ki was in the range of 100 to 1000 nM in assay [1] (setting [5]), 1000 to 40000 nM in assay [2] and 1000 to 40000 nM in assay [3].

For the compound `COc1ccc2c(c1)C(N[C@H]1CC1c1ccc(OCc3ccccc3)cc1)CC2.Cl` (stereo in doubt) [Example 1, N-((trans)-2-(4-(benzyloxy)phenyl)cyclopropyl)-6-methoxy-2,3-dihydro-1H-inden-1-amine hydrochloride], in assay [2], the inhibition constant Ki lay within 1000 to 40000 nM. Also, the “MAO-B (Ki)” value in assay [3] is reported as “II, III”.

In the case of `COc1ccc2c(c1OC)CCC2N[C@H]1CC1c1ccc(OCc2ccccc2)cc1.Cl` (stereo in doubt) [Example 3, N-((trans)-2-(4-(benzyloxy)phenyl)cyclopropyl)-4,5-dimethoxy-2,3-dihydro-1H-inden-1-amine hydrochloride], the “LSD1 (Ki)” value in assay [1] (Ki (IC50) at half of the maximum activity, two ranges listed = near the boundary) is “II, III”. For the same compound, the Ki in assay [2] and in assay [3] was 1000 to 40000 nM each time. For the same compound, the EC50 in assay [4] is roughly 37000 nM.

For `c1ccc(C2C[C@@H]2NC2CCc3ccccc32)cc1` (stereo in doubt) [Example 4, N-((trans)-2-phenylcyclopropyl)-2,3-dihydro-1H-inden-1-amine hydrochloride], in assay [2], the Ki fell in the range of 1000 to 40000 nM.

For the compound `COc1ccc2c(c1)C(N[C@H]1CC1c1ccccc1)CC2` (stereo in doubt) [Example 5, 6-methoxy-N-((trans)-2-phenylcyclopropyl)-2,3-dihydro-1H-inden-1-amine], the Ki in assay [2] fell in the range of 1000 to 40000 nM.

Turning to `Clc1ccc2c(c1)C(N[C@H]1CC1c1ccccc1)CC2` (stereo in doubt) [Example 6, 6-chloro-N-((trans)-2-phenylcyclopropyl)-2,3-dihydro-1H-inden-1-amine hydrochloride], the values for the Ki in assay [1] (setting [5]), in assay [2] and in assay [3] were 100 to 1000 nM, 1000 to 40000 nM and 1000 to 40000 nM, respectively.

With `COc1ccc2c(c1)C(N[C@H]1CC1c1ccccc1)CCC2` (stereo in doubt) [Example 8, 7-methoxy-N-((trans)-2-phenylcyclopropyl)-1,2,3,4-tetrahydronaphthalen-1-amine], the Ki in assay [1] (setting [5]) lay in the range of 100 to 1000 nM; in assay [2], 1000 to 40000 nM; in assay [3], 1000 to 40000 nM.

With `COc1cccc(-c2ccc(C3C[C@@H]3NC3CCc4ccc(OC)cc43)cc2)c1` (stereo in doubt) [Example 11, 6-methoxy-N-((trans)-2-(3′-methoxybiphenyl-4-yl)cyclopropyl)-2,3-dihydro-1H-inden-1-amine hydrochloride], the Ki in assay [2] was in the range of 1000 to 40000 nM.

With `COc1ccc2c(c1)C(N[C@H]1CC1c1ccc(OCc3cccc(Br)c3)cc1)CC2` (stereo in doubt) [Example 16, N-((trans)-2-(4-(3-bromobenzyloxyl)phenyl)cyclopropyl)-6-methoxy-2,3-dihydro-1H-inden-1-amine hydrochloride], the Ki fell in the range of 100 to 1000 nM in assay [1] (setting [5]), 1000 to 40000 nM in assay [2] and 1000 to 40000 nM in assay [3].
